Among the data in the Deep4Chem optical property database are absorption maximum values, retold here.

This data set can be described thus: solvent given as SMILES.

Molecules are shown by their SMILES.

Consider `CCCCCCc1ccc2c3c(ccc2c1)O[B-](F)(F)[N+](c1ccc([N+]2=Cc4c(ccc5cc(CCCCCC)ccc45)O[B-]2(F)F)cc1)=C3`, for which the absorption maximum amounted to 425 nm (in C1CCOC1), 422 nm (in CC#N), 436 nm (in Cc1ccccc1) and 430 nm (in ClCCl). `CC1(C)C(/C=C/C2=C(c3ccc(C(=O)O)cc3)C(=C/C=C3/N(CCCCS(=O)(=O)[O-])c4ccccc4C3(C)C)/CC2)=[N+](CCCCS(=O)(=O)[O-])c2ccccc21` came in with an absorption maximum (in CO) of 797 nm. For `CCOC(=O)C1=CNC=C(C(=O)OCC)C1c1ccccc1`, the absorption maximum by setting is: (in C1CCOC1) 355 nm; (in CO) 355 nm. Molecule `C(=C\c1ccncn1)/c1ccc(N(c2ccccc2)c2ccc(/C=C/c3ccncn3)cc2)cc1` had an absorption maximum (in ClCCl) of 422 nm. In turn, `c1ccc(C2CSC(c3c4ccc(=[N+]5CCCCC5)cc-4oc4cc(N5CCCCC5)ccc34)SC2)cc1` (stereo not drawn) gave an absorption maximum (in CO) of 584.58 nm. As for `COc1ccc(-c2pc3ccccc3s2)cc1` (stereo not drawn), the absorption maximum (in CC#N) amounted to 347 nm. In turn, `COCCOCCOCCOCC(COCCOCCOCCOC)Oc1cc(/C=C/c2ccc(/C=C(\C#N)c3ccncc3)cc2)c(OC(COCCOCCOCCOC)COCCOCCOCCOC)cc1/C=C/c1ccc(/C=C(\C#N)c2ccncc2)cc1` displayed an absorption maximum (in ClCCl) of 445 nm. For `Cc1nc2cc(/C=C/c3ccc(N(C)C)cc3)ccc2nc1-c1ccccc1`, the absorption maximum is recorded as 415 nm (in C1COCCO1), 407 nm (in CC#N) and 407 nm (in ClCCl).

For `CC(C)(C)NC(=O)c1ccc(-c2cc3ccccc3o2)c2ccc3c4ccccc4c4ccccc4c3c12`, the absorption maximum (in ClCCl) was 364 nm. As to `c1cc2ccc1-c1ccc(cc1)-c1ccc([se]1)-c1ccc(cc1)-c1ccc(cc1)-c1ccc([se]1)-c1ccc(cc1)-c1ccc(cc1)-c1ccc-2[se]1`, where the note is “in C1CCOC1”, the absorption maximum is on record as 365 nm. Under “in ClCCl”, `CCN(CC)c1ccc2c(c1)oc(=O)c1c(C)nc3c(c(-c4ccccc4)nn3C)c12` had an absorption maximum of 408 nm.

With `N#Cc1c(N2CCCCC2)cc(-c2ccc(-c3ccccc3)s2)c2c1CCc1ccccc1-2`, under “in C1CCOC1”, the absorption maximum is given as 345 nm. `CCCCCCOc1cc(N(CC)CC)ccc1/C=C(\C#N)c1ccc(/C=C/C(=C(C#N)C#N)c2ccc(N(c3ccccc3)c3ccccc3)cc2)s1` registered an absorption maximum (in ClCCl) of 557 nm.

As to `COc1ccc(C2=N/C(=C\c3ccc(C#N)cc3)C(=O)N2)cc1OC`, the absorption maximum (in C1COCCO1) is given as 405 nm. `CCOC(=O)/C=C/C1=C(c2ccc(C)cc2)C2=Nc3c(-c4ccc(C)cc4)c(-c4ccc(OC)cc4)c(-c4ccc(C)cc4)n3[B-](F)(F)[N+]2=C1c1ccc(C)cc1` yielded an absorption maximum (in ClC(Cl)Cl) of 673 nm. Turning to `Cc1ccc(C2=C3C=C(I)C=[N+]3[B-](F)(F)n3c2cc(I)c3I)cc1`, the absorption maximum by setting is: (in C1CCCCC1) 563.5 nm; (in CC#N) 553 nm; (in CCO) 559 nm; (in CCOC(C)=O) 556.5 nm; (in CO) 557.5 nm; (in OCC(F)(F)F) 553 nm.

The molecule `CC1(C)c2ccccc2N(c2ccc(-c3nc([C@]45CC6CC(C[C@@H](C6)C4)C5)nc([C@]45C[C@H]6C[C@@H](C[C@H](C6)C4)C5)n3)cc2)c2ccccc21` returned an absorption maximum (in Cc1ccccc1) of 367.8 nm. With `c1ccc2cc3c4c(ccc3cc2c1)-c1cccc2cccc-4c12`, for the setting “in CCCCCCC”, the absorption maximum is 407 nm.

As to `O=P1(c2ccccc2)c2cc(N3c4ccccc4Sc4ccccc43)ccc2-c2ccc(N3c4ccccc4Sc4ccccc43)cc21`, the absorption maximum (in Cc1ccccc1) turned out to be 399 nm.

With `N#C/C(=C\c1ccc(C#N)cc1)c1nc(-c2ccccc2)c(-c2ccccc2)s1`, where the note is “in CC#N”, the absorption maximum was found to be 379 nm.

In the case of `c1ccc(-c2nc(-c3ccc(-c4ccc(N(c5ccccc5)c5ccccc5)cc4)cn3)oc2-c2ccccc2)cc1`, the absorption maximum runs as follows: (in C1CCOC1) 351 nm; (in C1COCCO1) 354 nm; (in CC#N) 353 nm; (in CC(C)=O) 352 nm; (in CC(C)OC(C)C) 351 nm; (in CCCCCC) 353 nm. Further, the absorption maximum came to 353 nm (in CCCCOCCCC); 348 nm (in CCN(CC)CC); 351 nm (in CCOC(C)=O); 348 nm (in CCOCC); 358 nm (in Cc1ccccc1); 359 nm (in c1ccccc1). On to `N#Cc1cccc2[nH]ccc12`, for which the absorption maximum is, setting by setting: (in C1COCCO1) 304.29 nm; (in CC#N) 302.81 nm; (in O) 305 nm.

Molecule `Cc1nnc(-c2cc(-c3nnc(C)o3)c(-n3c4ccccc4c4ccccc43)cc2-n2c3ccccc3c3ccccc32)o1` gave an absorption maximum (in Cc1ccccc1) of 359 nm.

Take `CCCCCCCCCC1(CCCCCCCCC)c2cc(C#Cc3ccc(/C=C/c4ccc(N(CCCCCCCC)CCCCCCCC)cc4)cc3)ccc2-c2ccc(C#Cc3ccc(/C=C/c4ccc(N(CCCCCCCC)CCCCCCCC)cc4)cc3)cc21`: where the note is “in Cc1ccccc1”, the absorption maximum is reported as 411 nm. Take `c1cc2ccc1-c1ccc(cc1)-c1ccc(s1)-c1ccc(cc1)-c1ccc(cc1)-c1ccc(s1)-c1ccc(cc1)-c1ccc(cc1)-c1ccc(s1)-c1ccc(cc1)-c1ccc(cc1)-c1ccc-2s1`: the absorption maximum (in C1CCOC1) was 354 nm. `COc1ccc(/C=C/c2cc(/C=C/c3ccc(OC)cc3)ncn2)cc1` returned an absorption maximum (in ClCCl) of 359 nm. `Fc1cc(-c2nc(-c3ccccc3)nc(-c3ccccc3)n2)ccc1-n1c2ccccc2c2c3c(ccc21)C1(c2ccccc2-c2ccccc21)c1ccccc1-3` came in with an absorption maximum (in Cc1ccccc1) of 370 nm. Where the note is “in ClC(Cl)Cl”, `CCCCCCn1c2cc(/C=C/c3cccs3)ccc2c2ccc(/C=C/c3cccs3)cc21` came in with an absorption maximum of 408.16 nm.

Regarding `CCOC(=O)COc1ccc(/C=C/c2c(CC)c(C)c3n2[B-](F)(F)[N+]2=C(c4[nH]c(C)c(CC)c4C)c4ccccc4C2=C3C)cc1`, the absorption maximum runs as follows: (in C1CCOC1) 675 nm; (in CC#N) 664 nm; (in CCCCCC) 677 nm; (in CO) 666 nm; (in Cc1ccccc1) 682 nm; (in ClCCl) 675 nm. Molecule `CCCCCCCCCC[n+]1cc2ccc3c[n+](CCCCCCCCCC)cc4ccc(c1)c2c34` yielded an absorption maximum (in CC#N) of 418 nm. As to `C#CC1CN2CCC1CC2[C@@H](O)c1ccnc2ccc(OC)cc12` (stereo partly drawn), the absorption maximum reads like this: (in C1CCOC1) 332 nm; (in CC#N) 332 nm; (in CCCC#N) 332 nm; (in Cc1ccccc1) 332 nm; (in ClCCl) 333 nm. In the case of `C(=C(c1ccccc1)c1ccccc1)c1ccc(-c2cc(-c3ccc(C=C(c4ccccc4)c4ccccc4)cc3)c(-c3ccc(C=C(c4ccccc4)c4ccccc4)cc3)cc2-c2ccc(C=C(c3ccccc3)c3ccccc3)cc2)cc1`, where the note is “in C1CCOC1”, the absorption maximum came to 330 nm. Consider `C[Si](C)(C)c1sc([Si](C)(C)C)c2c1sc1ccsc12`, for which, for the setting “in ClC(Cl)Cl”, the absorption maximum was 310 nm. As for `S=C1CCCCC1`, where the note is “in CCO”, the absorption maximum is 495 nm.

On to `O=C1c2ccccc2-c2c(-c3cccc(Cl)c3O)[nH]c(=O)n21`, for which the absorption maximum is, setting by setting: (in CC#N) 388 nm; (in CO) 393 nm; (in ClCCl) 391 nm. Take `COc1ccc2c(c1)CCc1c(-c3ccccc3)c3n(c1-2)[B-](F)(F)[N+]1=C2C=NC=CN2[B-](F)(F)[N+]1=C3`: the absorption maximum (in ClCCl) was determined as 546 nm. Still for that read-out and setting: with `COc1ccc(-c2c3ccccc3c(-c3ccc(OC)cc3)c3cc4sc(C)cc4cc23)cc1` the figure was 450 nm. `CCOC(=O)c1sc2nc3c(c(C#N)c2c1N)CCCCCC3` yielded an absorption maximum (in c1ccccc1) of 410 nm. Turning to `CCn1c(-c2ccc(-c3ccc(-c4ccc(-c5n(CC)c6ccccc6[n+]5CC)cc4)cc3)cc2)[n+](CC)c2ccccc21`, under “in O”, the absorption maximum is 305 nm. Regarding `CC(C)(C(=O)c1ccc(N2c3ccccc3Oc3ccccc32)cc1)C(=O)c1ccc(N2c3ccccc3Oc3ccccc32)cc1`, the absorption maximum (in Cc1ccccc1) came out at 416 nm.

`C[Si]1(C)c2cc(-c3ccccc3)ccc2C=Cc2ccc(-c3ccccc3)cc21`: for the setting “in ClCCl”, the absorption maximum was determined as 379 nm. Regarding `CCN(CC)c1ccc2cc(-c3ccc(-c4c5ccccc5c(-c5ccc(-c6cc7ccc(N(CC)CC)cc7oc6=O)cc5)c5ccccc45)cc3)c(=O)oc2c1`, the absorption maximum (in ClC(Cl)Cl) amounted to 412 nm. Still for that read-out and setting: with `CCCCCCCCOc1ccc(-c2c3c4n(c(-c5ccc(OCCCCCCCC)cc5)c3c3n2[B-](F)(F)[n+]2c(ccc5cc(C(C)(C)C)ccc52)C=3C#N)[B-](F)(F)[n+]2c(ccc3cc(C(C)(C)C)ccc32)C=4C#N)cc1` the figure was 754 nm. Molecule `CCOC(=O)c1ccccc1-c1c2ccc(=O)cc-2oc2cc(OC(=O)[C@H](CSCc3ccc(C)cc3)NC(=O)OC(C)(C)C)ccc12` came in with an absorption maximum (in C1CCOC1) of 431 nm, an absorption maximum (in CC#N) of 431 nm, an absorption maximum (in CCO) of 435 nm and an absorption maximum (in CS(C)=O) of 457 nm. Where the note is “in ClCCl”, `CC(C)(C)c1cc(-c2c3cc(c(-c4cc(C(C)(C)C)cc(C(C)(C)C)c4)c4ccc([nH]4)c(-c4ccc([N+](=O)[O-])cc4)c4nc(c(-c5ccc([N+](=O)[O-])cc5)c5ccc2[nH]5)C=C4)N=C3)cc(C(C)(C)C)c1` registered an absorption maximum of 726 nm.

On to `O=[N+]([O-])c1ccc([N+]2=Cc3ccc4c5c(ccc4c3O[B-]2(c2ccccc2)c2ccccc2)C=[N+](c2ccc([N+](=O)[O-])cc2)[B-](c2ccccc2)(c2ccccc2)O5)cc1`, for which the absorption maximum came out at 536 nm (in Cc1ccccc1) and 541 nm (in ClCCl).

`CCCCCCn1c(=O)c2c3[nH]c4cc5sc6c([nH]c5cc4sc3c3c(=O)n(CCCCCC)c(=O)c3c2c1=O)c1c(=O)n(CCCCCC)c(=O)c1c1c(=O)n(CCCCCC)c(=O)c61` gave an absorption maximum (in ClCCl) of 549 nm. For `COc1cc(OC)cc(C2=C(c3cc(OC)c(OC)c(OC)c3)C3=Nc4c(-c5cc(OC)c(OC)c(OC)c5)c(-c5cc(OC)cc(OC)c5)c(-c5ccc(C(C)(C)C)cc5)n4[B-](F)(F)[N+]3=C2c2ccc(C(C)(C)C)cc2)c1`, under “in Cc1ccccc1”, the absorption maximum is given as 674 nm. Take `COc1ccc(-c2c3ccccc3c(-c3ccc(OC)cc3)c3ccccc23)cc1`: under “in ClCCl”, the absorption maximum was 376 nm.
